According to paper PMC10518255, “A first-in-class pan-lysyl oxidase inhibitor impairs stromal remodeling and enhances gemcitabine response and survival in pancreatic cancer” (Nature Cancer, 2023):
Several values for one entry are separate records, joined by “and”; a condition that tells them apart may be missing. Identical values can stand only once.

Legend:
Assay in all cases: Lysyl oxidase enzymatic activity, fluorescence-based assay, IC50
Assay type in all cases: biochemical
Fibroblast LOX = target: T1, Fibroblast LOX (Homo sapiens, UniProt P28300)
T1 construct: endogenous in cells
T1 sequence (P28300 169-417): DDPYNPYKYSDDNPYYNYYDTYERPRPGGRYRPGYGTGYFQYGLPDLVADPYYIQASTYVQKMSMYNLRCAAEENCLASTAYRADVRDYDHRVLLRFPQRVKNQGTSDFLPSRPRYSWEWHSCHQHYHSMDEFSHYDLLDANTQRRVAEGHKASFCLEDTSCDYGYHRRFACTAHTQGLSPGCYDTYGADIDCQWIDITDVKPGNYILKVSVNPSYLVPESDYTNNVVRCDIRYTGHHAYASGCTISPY
Excerpt: (§1) Data are presented as mean ± s.d. […] Data presented as mean ± s.d. […] Source data TEXT PRINTED IN THE PICTURE: (b) PXS-5505: Recombinant DAO IC50 (nM): >30,000; Recombinant SSAO/VAP1 IC50 (nM): >30,000; Recombinant MAO-A IC50 (nM): >30,000; Recombinant MAO-B IC50 (nM): >30,000 | (f) PXS-5505: Fibroblast LOX IC50 (nM): 4,930; Recombinant LOXL-1 IC50 (nM): 1,590; Recombinant LOXL-2 IC50 (nM): 570; Recombinant LOXL-3 IC50 (nM): 1,800; Recombinant LOXL-4 IC50 (nM): 190
(§2) In characterizing PXS-5505, the half-maximum inhibitory concentration (IC50) values for each of the lysyl oxidase family members were determined by measuring enzymatic activity using a fluorescence-based assay.
(§3) Data presented as mean values +/− SD. f. […] Data presented as mean values +/− SD. […] Data presented as mean values +/− SD. […] Data presented as mean values +/− SD. Ordinary one-way ANOVA for multiple comparison test performed. Source data

LOXL2 = target: T2, LOXL2 (Homo sapiens, UniProt Q9Y4K0)
T2 sequence (Q9Y4K0 26-774): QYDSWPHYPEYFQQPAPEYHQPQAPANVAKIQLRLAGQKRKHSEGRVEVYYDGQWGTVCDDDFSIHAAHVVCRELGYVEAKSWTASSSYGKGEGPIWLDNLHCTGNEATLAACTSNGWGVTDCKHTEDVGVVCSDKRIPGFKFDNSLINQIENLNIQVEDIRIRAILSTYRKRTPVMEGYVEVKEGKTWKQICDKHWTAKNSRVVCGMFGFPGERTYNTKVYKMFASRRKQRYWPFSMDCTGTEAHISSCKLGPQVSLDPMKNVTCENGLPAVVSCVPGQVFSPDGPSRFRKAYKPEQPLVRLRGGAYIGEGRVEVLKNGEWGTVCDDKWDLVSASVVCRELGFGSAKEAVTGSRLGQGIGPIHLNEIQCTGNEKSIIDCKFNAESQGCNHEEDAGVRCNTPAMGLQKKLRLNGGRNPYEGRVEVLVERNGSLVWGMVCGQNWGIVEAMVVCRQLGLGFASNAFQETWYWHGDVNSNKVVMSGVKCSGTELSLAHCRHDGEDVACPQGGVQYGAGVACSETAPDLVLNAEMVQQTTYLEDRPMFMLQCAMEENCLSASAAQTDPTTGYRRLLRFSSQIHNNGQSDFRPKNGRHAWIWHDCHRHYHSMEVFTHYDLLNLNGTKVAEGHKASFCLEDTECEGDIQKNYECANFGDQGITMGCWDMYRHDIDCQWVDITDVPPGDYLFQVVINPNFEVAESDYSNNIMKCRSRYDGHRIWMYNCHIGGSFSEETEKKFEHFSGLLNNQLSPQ
Excerpt: as §1, §2, §3

Recombinant LOXL-4 = target: T3, Recombinant LOXL-4 (Homo sapiens, UniProt Q96JB6)
T3 sequence (Q96JB6 25-756): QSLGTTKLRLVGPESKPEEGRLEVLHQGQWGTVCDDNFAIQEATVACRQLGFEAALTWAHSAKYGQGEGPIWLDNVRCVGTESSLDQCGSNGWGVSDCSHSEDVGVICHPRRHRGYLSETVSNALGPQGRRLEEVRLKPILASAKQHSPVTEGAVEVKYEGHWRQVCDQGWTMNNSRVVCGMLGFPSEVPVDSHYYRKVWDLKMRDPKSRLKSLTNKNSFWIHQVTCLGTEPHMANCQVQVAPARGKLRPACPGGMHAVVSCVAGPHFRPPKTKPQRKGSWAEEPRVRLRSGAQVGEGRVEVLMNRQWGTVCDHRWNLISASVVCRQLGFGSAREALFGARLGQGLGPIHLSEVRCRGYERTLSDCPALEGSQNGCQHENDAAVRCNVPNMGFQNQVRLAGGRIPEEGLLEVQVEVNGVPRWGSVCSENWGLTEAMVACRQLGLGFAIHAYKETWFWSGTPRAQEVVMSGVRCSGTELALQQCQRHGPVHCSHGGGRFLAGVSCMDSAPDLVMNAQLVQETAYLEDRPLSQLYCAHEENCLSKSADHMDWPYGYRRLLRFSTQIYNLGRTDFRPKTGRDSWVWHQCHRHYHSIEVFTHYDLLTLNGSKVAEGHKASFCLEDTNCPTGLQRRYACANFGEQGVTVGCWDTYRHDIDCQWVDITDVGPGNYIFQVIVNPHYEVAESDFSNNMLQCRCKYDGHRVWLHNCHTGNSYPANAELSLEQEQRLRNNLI
Excerpt: as §1, §2, §3

[1] = log(Concentration) -4.52288, replicates, 30 µM
[2] = log(Concentration) -5, replicates, 10 µM
[3] = log(Concentration) -5.47712, replicates, 3.333 µM
[4] = log(Concentration) -5.95424, replicates, 1.111 µM
[5] = log(Concentration) -6.43136, replicates, 0.3704 µM
[6] = log(Concentration) -6.90849, replicates, 0.1235 µM
[7] = log(Concentration) -7.38561, replicates, 0.04115 µM
[8] = log(Concentration) -7.86273, replicates, 0.01372 µM
[9] = log(Concentration) -8.33985, replicates, 0.004572 µM
[10] = log(Concentration) -8.81697, replicates, 0.001524 µM
[11] = log(Concentration) -9.29409, replicates, 0.000508 µM

## Cl.Cl.NC/C=C(\F)CS(=O)(=O)c1cccc2cccnc12.O [PXS-5505, (Z)-3-fluoro-4-(quinolin-8-ylsulfonyl)but-2-en-1-amine dihydrochloride monohydrate]
Fibroblast LOX
  IC50: 4930 nM
Fibroblast LOX; [1]
  LOX activity, IC50 determination curve: -1.8303 and 0.6579 and 0.3247
Fibroblast LOX; [2]
  LOX activity, IC50 determination curve: 3.883 and 10.1684 and 20.9265 and 5.02 and 4.758 and 6.391 and 6.186 and 6.029 and 20.5369 and 17.2584 and 29.8226 and 3.623 and 26.5163 and 8.055 and 5.279 and 6.036 and 3.683 and 8.994 and 2.62 and 5.888
Fibroblast LOX; [3]
  LOX activity, IC50 determination curve: 26.3616 and 38.5547 and 37.4589 and 30.4803 and 26.5908 and 26.0097 and 25.4086 and 23.2841 and 47.0211 and 41.5569 and 54.9662 and 30.9927 and 55.9602 and 33.6452 and 26.0055 and 25.2076 and 21.7888 and 33.3569 and 26.6311 and 45.3445
Fibroblast LOX; [4]
  LOX activity, IC50 determination curve: 65.9487 and 69.3911 and 60.7313 and 65.7321 and 64.7348 and 60.684 and 73.4741 and 69.7585 and 72.3228 and 61.8434 and 76.5191 and 70.4394 and 64.4999 and 59.1047 and 54.3417 and 66.355 and 58.9798 and 55.4122
Fibroblast LOX; [5]
  LOX activity, IC50 determination curve: 87.2177 and 88.3395 and 79.2811 and 66.9609 and 65.4146 and 85.3577 and 83.5816 and 83.3016 and 85.8139 and 85.7077 and 63.7427 and 87.2402 and 81.0139 and 93.5693 and 81.2357 and 80.2494 and 78.0142 and 85.6866 and 82.1322 and 88.2018
Fibroblast LOX; [6]
  LOX activity, IC50 determination curve: 96.5523 and 90.6919 and 85.8494 and 82.293 and 94.8665 and 94.3951 and 93.9784 and 95.943 and 87.9121 and 85.7594 and 95.8669 and 88.1459 and 102.086 and 95.1473 and 93.948 and 87.9189 and 98.6889 and 90.9023 and 91.7994
Fibroblast LOX; read-out: LOX activity, IC50 determination curve, log(Concentration) -6.90849, replicates
  activity at 0.1235 µM: 99.8%
Fibroblast LOX; read-out: LOX activity, IC50 determination curve, log(Concentration) -7.86273, replicates
  activity at 0.01372 µM: 104%
Fibroblast LOX; read-out: LOX activity, IC50 determination curve, log(Concentration) -8.33985, replicates
  activity at 0.004572 µM: 102%
Fibroblast LOX; read-out: LOX activity, IC50 determination curve, log(Concentration) -8.81697, replicates
  activity at 0.001524 µM: 108%
Fibroblast LOX; read-out: LOX activity, IC50 determination curve, log(Concentration) -9.29409, replicates
  activity at 0.000508 µM: 105%
LOXL2
  IC50: 570 nM
LOXL2; [1]
  LOXL2 activity, IC50 determination curve: 0.9304 and 1.355 and 0.47 and 0.4711 and 0.6366 and 0.3339 and 2.414 and 1.859 and 1.553 and 2.478
LOXL2; [2]
  LOXL2 activity, IC50 determination curve: 0.791 and 0.552 and 3.171 and 2.146 and 2.6 and 2.324 and 4.194 and 15.0185 and 14.1707 and 8.37
LOXL2; [3]
  LOXL2 activity, IC50 determination curve: 9.121 and 8.824 and 12.3933 and 6.2776 and 9.388 and 8.093 and 13.2114 and 39.9206 and 33.7785 and 20.6899
LOXL2; [4]
  LOXL2 activity, IC50 determination curve: 20.2389 and 25.6139 and 36.0073 and 28.0488 and 26.7357 and 24.6346 and 38.4827 and 46.4776 and 45.1428 and 35.5222
LOXL2; [5]
  LOXL2 activity, IC50 determination curve: 49.7826 and 57.6495 and 70.9317 and 50.7979 and 55.1496 and 52.5589 and 67.2849 and 60.9084 and 60.7641 and 53.7886
LOXL2; [6]
  LOXL2 activity, IC50 determination curve: 78.7223 and 82.1964 and 89.3928 and 77.9843 and 81.0351 and 77.3849 and 88.1863 and 70.6401 and 64.9941 and 65.916
LOXL2; [7]
  LOXL2 activity, IC50 determination curve: 84.6124 and 93.105 and 97.9338
LOXL2; [8]
  LOXL2 activity, IC50 determination curve: 94.5455 and 97.658 and 97.7862 and 96.4122 and 96.1969 and 92.4844 and 101.479 and 86.0269 and 80.2817 and 84.4595
LOXL2; [9]
  LOXL2 activity, IC50 determination curve: 93.002 and 104.67 and 103.129 and 98.6809 and 97.1184 and 102.587 and 94.1262 and 87.5963 and 94.8578
LOXL2; [10]
  LOXL2 activity, IC50 determination curve: 103.323 and 104.142 and 98.8815 and 101.169 and 98.4227 and 104.725 and 98.8974 and 89.6166 and 94.7795
LOXL2; [11]
  LOXL2 activity, IC50 determination curve: 94.0836 and 101.708 and 97.4085 and 100.105 and 99.6157 and 105.819 and 98.717 and 92.3043 and 96.8459
LOXL2; read-out: LOXL2 activity, IC50 determination curve, log(Concentration) -8.33985, replicates
  activity at 0.004572 µM: 91.8%
LOXL2; read-out: LOXL2 activity, IC50 determination curve, log(Concentration) -8.81697, replicates
  activity at 0.001524 µM: 95.1%
LOXL2; read-out: LOXL2 activity, IC50 determination curve, log(Concentration) -9.29409, replicates
  activity at 0.000508 µM: 92%
Recombinant LOXL-4
  IC50: 190 nM
Recombinant LOXL-4; [1]
  LOXL4 activity, IC50 determination curve: -2.4007 and -2.8906 and -3.2101 and -2.6712
Recombinant LOXL-4; [2]
  LOXL4 activity, IC50 determination curve: -1.4422 and -2.1664 and -2.1983 and -2.2521
Recombinant LOXL-4; [3]
  LOXL4 activity, IC50 determination curve: 0.2192 and -0.9736 and -1.1972 and -0.2715
Recombinant LOXL-4; [4]
  LOXL4 activity, IC50 determination curve: 5.544 and 5.363 and 4.947
Recombinant LOXL-4; [5]
  LOXL4 activity, IC50 determination curve: 33.33 and 26.333 and 28.4205
Recombinant LOXL-4; [6]
  LOXL4 activity, IC50 determination curve: 72.8948 and 68.0171 and 53.7035 and 49.075
Recombinant LOXL-4; [7]
  LOXL4 activity, IC50 determination curve: 94.28 and 92.9061 and 89.562 and 72.7789
Recombinant LOXL-4; [8]
  LOXL4 activity, IC50 determination curve: 99.5304 and 98.9021 and 84.3689
Recombinant LOXL-4; [9]
  LOXL4 activity, IC50 determination curve: 103.556 and 102.033 and 92.1549
Recombinant LOXL-4; [10]
  LOXL4 activity, IC50 determination curve: 95.8121
Recombinant LOXL-4; [11]
  LOXL4 activity, IC50 determination curve: 96.0112
Recombinant LOXL-4; read-out: LOXL4 activity, IC50 determination curve, log(Concentration) -5.95424, replicates
  activity at 1.111 µM: 6.34%
Recombinant LOXL-4; read-out: LOXL4 activity, IC50 determination curve, log(Concentration) -6.43136, replicates
  activity at 0.3704 µM: 39.8%
Recombinant LOXL-4; read-out: LOXL4 activity, IC50 determination curve, log(Concentration) -7.86273, replicates
  activity at 0.01372 µM: 101%
Recombinant LOXL-4; read-out: LOXL4 activity, IC50 determination curve, log(Concentration) -8.33985, replicates
  activity at 0.004572 µM: 106%
Recombinant LOXL-4; read-out: LOXL4 activity, IC50 determination curve, log(Concentration) -8.81697, replicates
  activity at 0.001524 µM: 104%
Recombinant LOXL-4; read-out: LOXL4 activity, IC50 determination curve, log(Concentration) -9.29409, replicates
  activity at 0.000508 µM: 105%
